Where two headings read alike, the source gives them in different places.
Tests used:
MKN45 cells = test: MKN45 cell proliferation assay (Cell-Titer-Glo, 120 h); assay type: cell-based; conditions: for EC50: Homo sapiens, MKN-45, 120 h, Cell-Titer-Glo, read-out: MKN45 Cell Prolif. 120 hr (EC50); for MKN45 Cell Prolif. 120 hr (Ymin-Obs): minimal percent of DMSO control observed in the concentrations tested
How it was run: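 Growth inhibition was read as blank-corrected Cell-Titer-Glo luminescence expressed as percent DMSO control after 120 h at 37 C, 400 cells/well. Compounds tested in triplicate as 10-point half-log series from 1 or 10 uM, 0.1% DMSO; four-parameter fit gave EC50, and lowest observed percent control was reported as Ymin-obs.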

WEE1 = molecular target: T1, WEE1 (Homo sapiens, UniProt P30291+Q96SW2); test: WEE1-ePL degradation assay (LentiX-WEE1-ePL-GSPT1-ND cells, InCELL Hunter luminescence, 4 h); assay type: cell-based; conditions: 293T-LentiX WEE1-ePL cells; for DC50: read-out: 293T-LentiX WEE1-ePL Degradation 4 hr (EC50)
T1 construct: C-terminal ePL-tagged (DiscoverX, Fremont, CA) full-length WEE1 expression construct; expressed in transfected cells; host or cells: LentiX-HEK293T (Invitrogen), lentiviral transduction; co-expressing GSPT1-GN (G576N, lacking the first 158 amino acids)
How it was run: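 HEK293T cells stably expressing C-terminal ePL-tagged full-length WEE1, 2500 cells/well, treated 4 h at 37° C with a 10-point 3-fold series from 1 or 10 uM. Remaining WEE1-ePL read by InCELL Hunter luminescence after 30 min. EC50 came from a four-parameter logistic fit, with Ymax set from DMSO control.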

[1] = lower limit of the fit (0 = luciferase inhibitor, Ymax = DMSO control)

O=C1CCC(N2Cc3cc(O[C@H]4CCN(Cc5ccc6nc([C@H]7CCCOC7)ncc6c5)C4)ccc3C2=O)C(=O)N1 (stereo partly drawn) [3-(5-{[(3S)-1-({2-[(3R)-oxan-3-yl]quinazolin-6-yl}methyl)pyrrolidin-3-yl]oxy}-1-oxo-2,3-dihydro-1H-isoindol-2-yl)piperidine-2,6-dione]
EC50 (MKN45 cells; growth inhibition): 8.8 nM | MKN45 Cell Prolif. 120 hr (Ymin-Obs) (MKN45 cells): 6.66 | 293T-LentiX WEE1-ePL Degradation 4 hr (Ymin) (WEE1; [1]): 28.5 | DC50 (WEE1): 16 nM

O=C1CCC(N2Cc3cc(O[C@H]4CCN(Cc5ccc6nc([C@H]7CCCOC7)ccc6c5)C4)ccc3C2=O)C(=O)N1 (stereo partly drawn) [3-(5-{[(3S)-1-({2-[(3R)-oxan-3-yl]quinolin-6-yl}methyl)pyrrolidin-3-yl]oxy}-1-oxo-2,3-dihydro-1H-isoindol-2-yl)piperidine-2,6-dione]
EC50 (MKN45 cells; growth inhibition): 5.28 nM | MKN45 Cell Prolif. 120 hr (Ymin-Obs) (MKN45 cells): 12.5 | 293T-LentiX WEE1-ePL Degradation 4 hr (Ymin) (WEE1; [1]): 32.33 | DC50 (WEE1): 3.33 nM

CN1CC[C@H](c2ncc3cc(CN4CC[C@H](Oc5ccc6c(c5)CN(C5CCC(=O)NC5=O)C6=O)C4)ccc3n2)C1 (stereo partly drawn) [3-(5-{[(3S)-1-({2-[(3S)-1-methylpyrrolidin-3-yl]quinazolin-6-yl}methyl)pyrrolidin-3-yl]oxy}-1-oxo-2,3-dihydro-1H-isoindol-2-yl)piperidine-2,6-dione]
EC50 (MKN45 cells): 84.1 nM | MKN45 Cell Prolif. 120 hr (Ymin-Obs) (MKN45 cells): 17.35 | 293T-LentiX WEE1-ePL Degradation 4 hr (Ymin) (WEE1; lower limit of the fit (Ymin=0 luciferase inhibitor, Ymax DMSO control)): 36.52 | DC50 (WEE1): 248 nM

CN1CC[C@H](c2ccc3cc(CN4CC[C@H](Oc5ccc6c(c5)CN(C5CCC(=O)NC5=O)C6=O)C4)ccc3n2)C1 (stereo partly drawn) [3-(5-{[(3S)-1-({2-[(3S)-1-methylpyrrolidin-3-yl]quinolin-6-yl}methyl)pyrrolidin-3-yl]oxy}-1-oxo-2,3-dihydro-1H-isoindol-2-yl)piperidine-2,6-dione]
EC50 (MKN45 cells; growth inhibition): 59.7 nM | MKN45 Cell Prolif. 120 hr (Ymin-Obs) (MKN45 cells): 12.73 | 293T-LentiX WEE1-ePL Degradation 4 hr (Ymin) (WEE1; [1]): 37 | DC50 (WEE1): 67.5 nM

O=C1CCC(N2Cc3cc(O[C@H]4CCN(Cc5ccc6nc(N7CC[C@H](O)C7)ccc6c5)C4)ccc3C2=O)C(=O)N1 (stereo partly drawn) [3-(5-{[(3S)-1-({2-[(3S)-3-hydroxypyrrolidin-1-yl]quinolin-6-yl}methyl)pyrrolidin-3-yl]oxy}-1-oxo-2,3-dihydro-1H-isoindol-2-yl)piperidine-2,6-dione]
EC50 (MKN45 cells; growth inhibition): 11.4 nM | MKN45 Cell Prolif. 120 hr (Ymin-Obs) (MKN45 cells): 7.1 | 293T-LentiX WEE1-ePL Degradation 4 hr (Ymin) (WEE1; [1]): 36.5 | DC50 (WEE1): 10.4 nM

CO[C@H]1CCCN(c2ccc3cc(CN4CC[C@H](Oc5ccc6c(c5)CN(C5CCC(=O)NC5=O)C6=O)C4)ccc3n2)C1 (stereo partly drawn) [3-(5-{[(3S)-1-({2-[(3S)-3-methoxypiperidin-1-yl]quinolin-6-yl}methyl)pyrrolidin-3-yl]oxy}-1-oxo-2,3-dihydro-1H-isoindol-2-yl)piperidine-2,6-dione]
EC50 (MKN45 cells; growth inhibition): 5.29 nM | MKN45 Cell Prolif. 120 hr (Ymin-Obs) (MKN45 cells): 10.12 | 293T-LentiX WEE1-ePL Degradation 4 hr (Ymin) (WEE1; [1]): 34 | DC50 (WEE1): 5.83 nM

CO[C@H]1CCN(c2ccc3cc(CN4CC[C@H](Oc5ccc6c(c5)CN(C5CCC(=O)NC5=O)C6=O)C4)ccc3n2)C1 (stereo partly drawn) [3-(5-{[(3S)-1-({2-[(3S)-3-methoxypyrrolidin-1-yl]quinolin-6-yl}methyl)pyrrolidin-3-yl]oxy}-1-oxo-2,3-dihydro-1H-isoindol-2-yl)piperidine-2,6-dione]
EC50 (MKN45 cells; growth inhibition): 1.58 nM | MKN45 Cell Prolif. 120 hr (Ymin-Obs) (MKN45 cells): 9.12 | 293T-LentiX WEE1-ePL Degradation 4 hr (Ymin) (WEE1; [1]): 34 | DC50 (WEE1): 3.58 nM

O=C1CCC(N2Cc3cc(O[C@H]4CCN(Cc5ccc6nc([C@@H]7CCCOC7)ncc6c5)C4)ccc3C2=O)C(=O)N1 (stereo partly drawn) [3-(5-{[(3S)-1-({2-[(3S)-oxan-3-yl]quinazolin-6-yl}methyl)pyrrolidin-3-yl]oxy}-1-oxo-2,3-dihydro-1H-isoindol-2-yl)piperidine-2,6-dione]
EC50 (MKN45 cells; growth inhibition): 19.4 nM | MKN45 Cell Prolif. 120 hr (Ymin-Obs) (MKN45 cells): 5.31 | 293T-LentiX WEE1-ePL Degradation 4 hr (Ymin) (WEE1; [1]): 31 | DC50 (WEE1): 33.8 nM

O=C1CCC(N2Cc3cc(O[C@H]4CCN(Cc5ccc6nc([C@@H]7CCCOC7)ccc6c5)C4)ccc3C2=O)C(=O)N1 (stereo partly drawn) [3-(5-{[(3S)-1-({2-[(3S)-oxan-3-yl]quinolin-6-yl}methyl)pyrrolidin-3-yl]oxy}-1-oxo-2,3-dihydro-1H-isoindol-2-yl)piperidine-2,6-dione]
EC50 (MKN45 cells; growth inhibition): 3.59 nM | MKN45 Cell Prolif. 120 hr (Ymin-Obs) (MKN45 cells): 10.6 | 293T-LentiX WEE1-ePL Degradation 4 hr (Ymin) (WEE1; [1]): 32 | DC50 (WEE1): 2.15 nM

O=C1CCC(N2Cc3cc(O[C@H]4CCN(Cc5ccc6nc(N7C[C@H]8CCO[C@H]8C7)ncc6c5)C4)ccc3C2=O)C(=O)N1 (stereo partly drawn) [3-(5-{[(3S)-1-({2-[(3aR,6aR)-hexahydro-2H-furo[2,3-c]pyrrol-5-yl]quinazolin-6-yl}methyl)pyrrolidin-3-yl]oxy}-1-oxo-2,3-dihydro-1H-isoindol-2-yl)piperidine-2,6-dione]
EC50 (MKN45 cells; growth inhibition): 13.4 nM | MKN45 Cell Prolif. 120 hr (Ymin-Obs) (MKN45 cells): 13.09 | 293T-LentiX WEE1-ePL Degradation 4 hr (Ymin) (WEE1; [1]): 35 | DC50 (WEE1): 12.6 nM

O=C1CCC(N2Cc3cc(O[C@H]4CCN(Cc5ccc6nc(N7C[C@H]8CCO[C@H]8C7)ccc6c5)C4)ccc3C2=O)C(=O)N1 (stereo partly drawn) [3-(5-{[(3S)-1-({2-[(3aR,6aR)-hexahydro-2H-furo[2,3-c]pyrrol-5-yl]quinolin-6-yl}methyl)pyrrolidin-3-yl]oxy}-1-oxo-2,3-dihydro-1H-isoindol-2-yl)piperidine-2,6-dione]
EC50 (MKN45 cells; growth inhibition): 6.09 nM | MKN45 Cell Prolif. 120 hr (Ymin-Obs) (MKN45 cells): 14.13 | 293T-LentiX WEE1-ePL Degradation 4 hr (Ymin) (WEE1; [1]): 37 | DC50 (WEE1): 3.2 nM

O=C1CCC(N2Cc3cc(O[C@H]4CCN(Cc5ccc6nc(N7C[C@H]8COC[C@H]8C7)ncc6c5)C4)ccc3C2=O)C(=O)N1 (stereo partly drawn) [3-(5-{[(3S)-1-({2-[(3aR,6aS)-hexahydro-1H-furo[3,4-c]pyrrol-5-yl]quinazolin-6-yl}methyl)pyrrolidin-3-yl]oxy}-1-oxo-2,3-dihydro-1H-isoindol-2-yl)piperidine-2,6-dione]
EC50 (MKN45 cells; growth inhibition): 13 nM | MKN45 Cell Prolif. 120 hr (Ymin-Obs) (MKN45 cells): 12.43 | 293T-LentiX WEE1-ePL Degradation 4 hr (Ymin) (WEE1; [1]): 38 | DC50 (WEE1): 14 nM

O=C1CCC(N2Cc3cc(O[C@H]4CCN(Cc5ccc6nc(N7C[C@H]8COC[C@H]8C7)ccc6c5)C4)ccc3C2=O)C(=O)N1 (stereo partly drawn) [3-(5-{[(3S)-1-({2-[(3aR,6aS)-hexahydro-1H-furo[3,4-c]pyrrol-5-yl]quinolin-6-yl}methyl)pyrrolidin-3-yl]oxy}-1-oxo-2,3-dihydro-1H-isoindol-2-yl)piperidine-2,6-dione]
EC50 (MKN45 cells; growth inhibition): 6.4 nM | MKN45 Cell Prolif. 120 hr (Ymin-Obs) (MKN45 cells): 14.73 | 293T-LentiX WEE1-ePL Degradation 4 hr (Ymin) (WEE1; [1]): 39 | DC50 (WEE1): 3.61 nM

CC1(C)C[C@H](c2ncc3cc(CN4CC[C@H](Oc5ccc6c(c5)CN(C5CCC(=O)NC5=O)C6=O)C4)ccc3n2)CCO1 (stereo partly drawn) [3-(5-{[(3S)-1-({2-[(4R)-2,2-dimethyloxan-4-yl]quinazolin-6-yl}methyl)pyrrolidin-3-yl]oxy}-1-oxo-2,3-dihydro-1H-isoindol-2-yl)piperidine-2,6-dione]
EC50 (MKN45 cells; growth inhibition): 19.7 nM | MKN45 Cell Prolif. 120 hr (Ymin-Obs) (MKN45 cells): 9.866 | 293T-LentiX WEE1-ePL Degradation 4 hr (Ymin) (WEE1; [1]): 27 | DC50 (WEE1): 65 nM

CC1(C)COCC[C@H]1c1ccc2cc(CN3CC[C@H](Oc4ccc5c(c4)CN(C4CCC(=O)NC4=O)C5=O)C3)ccc2n1 (stereo partly drawn) [3-(5-{[(3S)-1-({2-[(4R)-3,3-dimethyloxan-4-yl]quinolin-6-yl}methyl)pyrrolidin-3-yl]oxy}-1-oxo-2,3-dihydro-1H-isoindol-2-yl)piperidine-2,6-dione]
EC50 (MKN45 cells; growth inhibition): 8.03 nM | MKN45 Cell Prolif. 120 hr (Ymin-Obs) (MKN45 cells): 11.03 | 293T-LentiX WEE1-ePL Degradation 4 hr (Ymin) (WEE1; [1]): 41 | DC50 (WEE1): 3.31 nM

O=C1CCC(N2Cc3cc(O[C@H]4CCN(Cc5ccc6nc(N7CC[C@]78CCOC8)ncc6c5)C4)ccc3C2=O)C(=O)N1 (stereo partly drawn) [3-(5-{[(3S)-1-({2-[(4R)-6-oxa-1-azaspiro[3.4]octan-1-yl]quinazolin-6-yl}methyl)pyrrolidin-3-yl]oxy}-1-oxo-2,3-dihydro-1H-isoindol-2-yl)piperidine-2,6-dione]
EC50 (MKN45 cells; growth inhibition): 16.7 nM | MKN45 Cell Prolif. 120 hr (Ymin-Obs) (MKN45 cells): 13.42 | 293T-LentiX WEE1-ePL Degradation 4 hr (Ymin) (WEE1; [1]): 35.43 | DC50 (WEE1): 19.5 nM

O=C1CCC(N2Cc3cc(O[C@H]4CCN(Cc5ccc6nc(N7CC[C@]78CCOC8)ccc6c5)C4)ccc3C2=O)C(=O)N1 (stereo partly drawn) [3-(5-{[(3S)-1-({2-[(4R)-6-oxa-1-azaspiro[3.4]octan-1-yl]quinolin-6-yl}methyl)pyrrolidin-3-yl]oxy}-1-oxo-2,3-dihydro-1H-isoindol-2-yl)piperidine-2,6-dione]
EC50 (MKN45 cells; growth inhibition): 5.4 nM | MKN45 Cell Prolif. 120 hr (Ymin-Obs) (MKN45 cells): 7.715 | 293T-LentiX WEE1-ePL Degradation 4 hr (Ymin) (WEE1; [1]): 42 | DC50 (WEE1): 5.38 nM

— patent US20240067632A1, “WEE1 Degrading Compounds and Uses Thereof” (Bristol-Myers Squibb Company, priority 2022, published 2024)
